In brackets after ≈: the same amount, converted by molar mass.
Experiments:
[1] = In vitro 3T3 NRU phototoxicity assay OECD 432; type: cell-based, mouse; details: mouse, reference item; for viability at 1 h, 200 µg/mL: C1 = 200 µg/mL; for viability at 1 h, 66.67 µg/mL: C2 = 66.67 µg/mL; for viability at 1 h, 22.22 µg/mL: C3 = 22.22 µg/mL; for viability at 1 h, 7.407 µg/mL: C4 = 7.407 µg/mL; for viability at 1 h, 2.47 µg/mL: C5 = 2.47 µg/mL; for viability at 1 h, 0.823 µg/mL: C6 = 0.823 µg/mL; for viability at 1 h, 0.274 µg/mL: C7 = 0.274 µg/mL; for viability at 1 h, 0.091 µg/mL: C8 = 0.091 µg/mL
Protocol: (§1) The phototoxicity assay used 3T3 cells as test system. The aim of this study was to obtain the Photo-Irritation Factor (PIF) for the postbiotic composition of the invention. 3T3 cells were treated with the postbiotic composition of the invention at eight different concentrations for 1 hour. Thereafter, half of the samples were exposed to simulated solar irradiation, whereas the other half was kept in the dark. Cell viability was calculated after 24 hours of incubation by means of the neutral red assay. The following reagents were used for these assays. Table 3 Table 3 Reagents used in this example
(§2) Balb/c 3T3 cells were used as a test system. Once thawed, cells were grown as a monolayer in DMEM culture medium supplemented with 10% Newborn Calf Serum (NCBS) and antibiotics (100 U/mL penicillin and 100 µg/mL streptomycin). The cells were incubated under standard culture conditions (37°C ± 2°C and 5% CO2/air), changing the medium every 2-3 days and sub-cultivating before reaching 80% confluency. According to the guideline, the 3T3 cells used in this study were tested for mycoplasma and only mycoplasma-free cells were used throughout the study.
(§3) To prepare the system, after thawing, cells were propagated from stock cultures and grown in culture medium for two weeks. For each assay, when cell density reached 80% confluence, they were trypsinized and counted using trypan blue strain. The day before the exposition to the postbiotic composition of the invention, the cells were tripsinized and counted. A suspension of 100,000 cells/mL was prepared and 200 µL of the suspension were added to each well in 96-well plates (20,000 cells/well), except in the peripheral wells.
(§4) According to the OECD Guideline for testing of chemicals: In Vitro 3T3 NRU phototoxicity test, protocol No 432 (2019), the maximum concentration to be analyzed is 1 mg/mL. As the cytotoxicity assay exposed the cells to the composition for 24 hours, and the phototoxicity assay includes an exposition of 1 hour, it was decided to perform the phototoxicity test starting from 1 mg/mL. From this concentration, eight concentrations were prepared in 1/3 dilutions. This solution was prepared in Hank's with Ca2+ and Mg2+ and HEPES. (C1) 1 mg/mL; (C2) 0.33 mg/mL; (C3) 0.11 mg/mL; (C4) 0.037 mg/mL; (C5) 0.0123 mg/mL; (C6) 0.0041 mg/mL; (C7) 0.00137 mg/mL; and (C8) 0.000457 mg/mL SDS was used as a positive control, 8 concentrations were prepared 400 µg/mL; 200 µg/mL; 100 µg/mL; 50 µg/mL; 25 µg/mL; 12.5 µg/mL; 6.25 µg/mL; and 3.125 µg/mL
(§5) As the exposition time involved in the phototoxicity test was shorter, it was decided to start this assay from highest concentration allowed: 1 mg/mL. Seven more concentrations were prepared in 1/3 dilutions. 3T3 cells were seeded at 20,000 cells/well in 96-well plates. Cells were exposed to the eight concentrations of the postbiotic composition of the invention defined above for 1 hour at 37°C and 5% CO2. Two 96-well plates were prepared for the postbiotic composition of the invention, the postbiotic composition and reference control (CPZ). One plate of each condition (+IRR) was irradiated for 52 minutes at 5 J/cm^2 while the other plates (- IRR) were kept in the dark for the same amount of time. Then, culture media was removed, cells were washed with Hank's without phenol red and 100 µL of neutral red were added to each well. Cells were incubated for 3 hours at 37°C and 5% CO2 and then were washed again. Finally, the neutral red was solubilized by adding 100 µL to each well of a solution of Acetic acid/Ethanol. Plates were incubated 10 minutes at room temperature and absorbance at 540 nm was measured.
(§6) Once obtained the cytotoxic results, the phototoxicity assay for the postbiotic composition of the invention was performed using 1 mg/mL as the highest dose. […] Therefore, it was decided to use the highest concentration allowed according to OECD 432 guideline. In total, 8 concentrations were prepared as disclosed in the material and methods section above. […]

[2] = test system: BALB/c 3T3 cells; assay: In vitro 3T3 NRU phototoxicity assay OECD 432; type: cell-based, mouse; details: for IC50: Mus musculus, BALB/c3T3, light or radiation study
Protocol: as §1, §2, §3, §4, §5, §6

[3] = in vitro; details: human
[4] = test system: 3T3 cells; assay: Dose range finding (cytotoxicity assay, MTT); type: cell-based, mouse; details: 3T3, 24h
Protocol: - Prior to the phototoxicity assay, solubility of the composition was determined, it was decided to start from 20 mg/mL in culture media. Starting from this concentration, a dose range finding experiment (cytotoxicity assay) was performed. Starting from 20 mg/mL in culture media, eight concentrations were prepared in 1/10 dilutions: 20 mg/mL; 2 mg/mL; 0.2 mg/mL; 0.02 mg/mL; 0.002 mg/mL; 0.0002 mg/mL; 0.00002 mg/mL; and 0.000002 mg/mL
Starting from the limit of solubility obtained (20 mg/mL) a dose range finding experiment was set up in order to determine the IC50 value (if obtained). 3T3 cells were seeded at 10,000 cells/well in 96-well plates. Seven more concentrations were prepared following a 1/10 dilution factor. Cells were exposed to the postbiotic composition of the invention for 24h. SDS was used as positive control and viability was determined by means of MTT method.
To establish the concentrations to be tested in the phototoxicity assay, it was decided to check the postbiotic composition of the invention in a dose range finding assay using SDS as a positive control. Starting from 20 mg/mL dissolved in culture media it was decided to prepare the concentrations disclosed above in the materials and methods section. Using the Graphpad Prism 8 statistical software, we calculated the IC50 values by means of a 4-parameter logistic curve (4PL). This equation uses log(dose) values.

Compound `CN(C)CCCN1c2ccccc2Sc2ccc(Cl)cc21` [CPZ, Chlorpromazine] has a viability at 1 h, 200 µg/mL ([1]; +IRR (5 J/cm^2)) of 2.57%, a viability at 1 h, 66.67 µg/mL ([1]; +IRR (5 J/cm^2)) of 0.32% and a viability at 1 h, 22.22 µg/mL ([1]; +IRR (5 J/cm^2)) of 1.62%. The viability at 1 h, 7.407 µg/mL ([1]; +IRR (5 J/cm^2)) was 1.75%, the viability at 1 h, 2.47 µg/mL ([1]; +IRR (5 J/cm^2)) was 1.31% and the viability at 1 h, 0.823 µg/mL ([1]; +IRR (5 J/cm^2)) was 83.4%. The viability at 1 h, 0.274 µg/mL ([1]; +IRR (5 J/cm^2)) was 104%, the viability at 1 h, 0.091 µg/mL ([1]; +IRR (5 J/cm^2)) was 103% and the viability at 1 h, 200 µg/mL ([1]; -IRR) was 0.41%. It also gave a viability at 1 h, 66.67 µg/mL ([1]; -IRR) of 0.01%, a viability at 1 h, 22.22 µg/mL ([1]; -IRR) of 97.8% and a viability at 1 h, 7.407 µg/mL ([1]; -IRR) of 104%. The viability at 1 h, 2.47 µg/mL ([1]; -IRR) was 105%, the viability at 1 h, 0.823 µg/mL ([1]; -IRR) was 105% and the viability at 1 h, 0.274 µg/mL ([1]; -IRR) was 104%. The viability at 1 h, 0.091 µg/mL ([1]; -IRR) was 102%, the IC50 ([2]; irradiated plates) was 0.974 µg/mL (≈ 3.05 µM) and the IC50 ([2]; non-irradiated plates) was 31.4 µg/mL (≈ 98.5 µM). For the same compound, the “MPE (∑i = 1^n wi PEci)/(∑i = 1^n wi)” value ([2]; mouse, 1 h) was 0.401 and the “PIF (IC50(−Irr))/(IC50(+Irr))” value ([2]; mouse, 1 h) was 32.303.

In the case of `CCCCCCCCCCCCOS(=O)(=O)[O-].[Na+]` [SDS, Sodium dodecyl sulphate], the viability [3] is reported as 2% and the “positive control result in dose range finding” value [4] is reported as “within the known range”.

Source: patent publication EP4501339A1, “POSTBIOTIC COMPOSITION FOR SKIN DISORDERS AND COSMETIC USE” (Igen Biolab Group AG, priority 2023, dated 2025)
